# Experimental data as given in PMC8509773, “3-Pyridinylidene Derivatives of Chemically Modified Lupane and Ursane Triterpenes as Promising Anticancer Agents by Targeting Apoptosis” (International Journal of Molecular Sciences, 2021).
# Tests used:
# Test in all cases: NCI-60 SRB screening (one-dose and five-dose)
# Format in all cases: cell-based, human
# [1] = tested on: 786-0; conditions: 48 h; for Growth Percent: 786-0, 10 μM
# Summary of the method: (§1)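 After a 48-h incubation with compound, cellular protein was stained with SRB and growth estimated by spectrophotometry relative to untreated controls.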
# [2] = tested on: MOLT-4; conditions: 48 h; for Growth Percent: MOLT-4, 10 μM
# Summary of the method: (§2)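 Compounds were added at a single concentration and cultures incubated for 48 h. Growth was measured with sulforhodamine B protein staining, read spectrophotometrically and expressed as percent of untreated controls.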
# [3] = tested on: HCT-116; conditions: 48 h; for Growth Percent: HCT-116, 10 μM
# Summary of the method: as §1
# [4] = tested on: KM-12; conditions: 48 h; for Growth Percent: KM-12, 10 μM
# Summary of the method: as §1
# [5] = tested on: K-562; conditions: 48 h; for Growth Percent: K-562, 10 μM
# Summary of the method: as §2
# [6] = tested on: ACHN; conditions: 48 h; for Growth Percent: 10 μM
# Summary of the method: as §1
# [7] = tested on: SK-OV-3; conditions: 48 h; for Growth Percent: SK-OV-3, 10 μM
# Summary of the method: as §1
# [8] = tested on: NCI/ADR-RES; conditions: 48 h; for Growth Percent: 10 μM
# Summary of the method: as §1
# [9] = tested on: MDA-MB-468; conditions: 48 h; for Growth Percent: MDA-MB-468, 10 μM
# Summary of the method: as §1
# [10] = tested on: MDA-MB-231/ATCC; conditions: 48 h; for Growth Percent: 10 μM
# Summary of the method: as §1
# [11] = tested on: EKVX; conditions: 48 h; for Growth Percent: 10 μM
# Summary of the method: as §1
# [12] = tested on: UO-31; conditions: 48 h; for Growth Percent: UO-31, 10 μM
# Summary of the method: as §1
# [13] = tested on: DU-145; conditions: 48 h; for Growth Percent: DU-145, 10 μM
# Summary of the method: (§3)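 Growth inhibition is scored with sulforhodamine B after 48 h of continuous compound exposure. An MG_MID averages each parameter over the whole cell panel, insensitive lines being counted at the top tested concentration.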
# [14] = tested on: HCC-2998; conditions: 48 h; for Growth Percent: HCC-2998, 10 μM
# Summary of the method: as §3
# [15] = tested on: HL-60(TB); conditions: 48 h; for Growth Percent: 10 μM
# Summary of the method: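 48-h single-concentration exposure; SRB protein dye end point; % growth vs untreated controls by absorbance.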
# [16] = tested on: SK-MEL-28; conditions: 48 h; for Growth Percent: SK-MEL-28, 10 μM
# Summary of the method: as §3
# [17] = tested on: OVCAR-8; conditions: 48 h; for Growth Percent: OVCAR-8, 10 μM
# Summary of the method: as §3
# [18] = tested on: SK-MEL-5; conditions: 48 h; for Growth Percent: SK-MEL-5, 10 μM
# Summary of the method: as §1
# [19] = tested on: NCI-H322M; conditions: 48 h; for Growth Percent: 10 μM
# Summary of the method: as §2
# [20] = tested on: BT-549; conditions: 48 h; for Growth Percent: BT-549, 10 μM
# Summary of the method: as §2
# [21] = tested on: MDA-MB-435; conditions: 48 h; for Growth Percent: MDA-MB-435, 10 μM
# Summary of the method: as §1
# [22] = tested on: TK-10; conditions: 48 h; for Growth Percent: TK-10, 10 μM
# Summary of the method: as §2
# [23] = tested on: M14; conditions: 48 h; for Growth Percent: M14, 10 μM
# Summary of the method: as §2
# [24] = tested on: UACC-257; conditions: 48 h; for Growth Percent: UACC-257, 10 μM
# Summary of the method: as §1
# [25] = tested on: RXF 393; conditions: 48 h; for Growth Percent: RXF 393, 10 μM
# Summary of the method: as §2
# [26] = tested on: HS 578T; conditions: 48 h; for Growth Percent: 10 μM
# Summary of the method: as §3
# [27] = tested on: OVCAR-5; conditions: 48 h; for Growth Percent: OVCAR-5, 10 μM
# Summary of the method: as §1
# [28] = tested on: MALME-3M; conditions: 48 h; for Growth Percent: 10 μM
# Summary of the method: as §1
# [29] = tested on: HOP-92; conditions: 48 h; for Growth Percent: HOP-92, 10 μM
# Summary of the method: as §3
# [30] = tested on: SW-620; conditions: 48 h; for Growth Percent: SW-620, 10 μM
# Summary of the method: as §1
# [31] = tested on: MCF7; conditions: 48 h; for Growth Percent: MCF7, 10 μM
# Summary of the method: as §1
# [32] = tested on: CCRF-CEM; conditions: 48 h; for Growth Percent: 10 μM
# Summary of the method: as §3
# [33] = tested on: NCI-H460; conditions: 48 h; for Growth Percent: NCI-H460, 10 μM
# Summary of the method: as §1
# [34] = tested on: SF-268; conditions: 48 h; for Growth Percent: SF-268, 10 μM
# Summary of the method: as §2
# [35] = tested on: OVCAR-3; conditions: 48 h; for Growth Percent: OVCAR-3, 10 μM
# Summary of the method: as §1
# [36] = tested on: SF-295; conditions: 48 h; for Growth Percent: SF-295, 10 μM
# Summary of the method: as §1
# [37] = tested on: OVCAR-4; conditions: 48 h; for Growth Percent: OVCAR-4, 10 μM
# Summary of the method: as §3
# [38] = tested on: SN12C; conditions: 48 h; for Growth Percent: 10 μM
# Summary of the method: as §2
# [39] = tested on: SK-MEL-2; conditions: 48 h; for Growth Percent: SK-MEL-2, 10 μM
# Summary of the method: as §3
# [40] = tested on: HCT-15; conditions: 48 h; for Growth Percent: HCT-15, 10 μM
# Summary of the method: as §1
# [41] = Homo sapiens, five dose 0.01–100 μM
smiles,measurement,setting,value
"COC(=O)[C@]12CC[C@@H](C(=O)/C=C/c3cccnc3)[C@@H]1[C@H]1CC[C@@H]3[C@@]4(C)C/C(=C\c5cccnc5)C(=O)C(C)(C)[C@@H]4CC[C@@]3(C)[C@]1(C)CC2 [Compound 7, methyl 2,30-bis-(3-pyridinylidene)-3,20-dioxo-lup-28-oate]",Growth Percent,[1],−92.26%
same,GI50,"[1]; Homo sapiens, 786-0, five dose 0.01–100 μM",310 nM
same,GI50,"[2]; Homo sapiens, MOLT-4, five dose 0.01–100 μM",300 nM
same,Growth Percent,[2],−31.34%
same,Growth Percent,[3],−87.45%
same,GI50,"[3]; Homo sapiens, HCT-116, five dose 0.01–100 μM",200 nM
same,GI50,"[4]; Homo sapiens, KM12, KM-12, five dose 0.01–100 μM",1080 nM
same,Growth Percent,[4],−74.98%
same,GI50,"[5]; Homo sapiens, K562, K-562, five dose 0.01–100 μM",330 nM
same,Growth Percent,[5],−21.61%
same,Growth Percent,[6],−100.00%
same,GI50,[6]; [41],190 nM
same,GI50,"[7]; Homo sapiens, SK-OV-3, five dose 0.01–100 μM",1430 nM
same,Growth Percent,[7],−23.10%
same,Growth Percent,[8],−39.38%
same,GI50,[8]; [41],430 nM
same,GI50,"[9]; Homo sapiens, MDA-MB-468, five dose 0.01–100 μM",270 nM
same,Growth Percent,[9],−76.12%
same,Growth Percent,[10],−81.32%
same,GI50,[10]; [41],470 nM
same,Growth Percent,[11],−76.32%
same,GI50,[11]; [41],410 nM
same,GI50,"[12]; Homo sapiens, UO-31, five dose 0.01–100 μM",170 nM
same,Growth Percent,[12],−100.00%
same,Growth Percent,[13],−67.84%
same,GI50,"[13]; Homo sapiens, DU-145, five dose 0.01–100 μM",1530 nM
same,Growth Percent,[14],−55.45%
same,GI50,"[14]; Homo sapiens, HCC-2998, five dose 0.01–100 μM",670 nM
same,Growth Percent,[15],−30.17%
same,GI50,[15]; [41],250 nM
same,GI50,"[16]; Homo sapiens, SK-MEL-28, five dose 0.01–100 μM",240 nM
same,Growth Percent,[16],−96.28%
same,GI50,"[17]; Homo sapiens, OVCAR-8, five dose 0.01–100 μM",340 nM
same,Growth Percent,[17],−34.25%
same,GI50,"[18]; Homo sapiens, SK-MEL-5, five dose 0.01–100 μM",460 nM
same,Growth Percent,[18],−98.85%
same,Growth Percent,[19],−80.71%
same,GI50,[19]; [41],1480 nM
same,Growth Percent,[20],−92.12%
same,GI50,"[20]; Homo sapiens, BT-549, five dose 0.01–100 μM",220 nM
same,GI50,"[21]; Homo sapiens, MDA-MB-435, MDA-B-435, five dose 0.01–100 μM",200 nM
same,Growth Percent,[21],−69.71%
same,GI50,"[22]; Homo sapiens, TK-10, five dose 0.01–100 μM",650 nM
same,Growth Percent,[22],−60.49%
same,GI50,"[23]; Homo sapiens, M14, five dose 0.01–100 μM",310 nM
same,Growth Percent,[23],−80.31%
same,GI50,"[24]; Homo sapiens, UACC-257, five dose 0.01–100 μM",270 nM
same,Growth Percent,[24],−58.90%
same,GI50,"[25]; Homo sapiens, RXF 393, five dose 0.01–100 μM",270 nM
same,Growth Percent,[25],−93.62%
same,Growth Percent,[26],−49.05%
same,GI50,[26]; [41],460 nM
same,GI50,"[27]; Homo sapiens, OVCAR-5, five dose 0.01–100 μM",410 nM
same,Growth Percent,[27],−62.74%
same,Growth Percent,[28],−95.19%
same,GI50,[28]; [41],210 nM
same,Growth Percent,[29],−79.86%
same,GI50,"[29]; Homo sapiens, HOP-92, five dose 0.01–100 μM",530 nM
same,GI50,"[30]; Homo sapiens, SW-620, five dose 0.01–100 μM",300 nM
same,Growth Percent,[30],−67.32%
same,GI50,"[31]; Homo sapiens, MCF7, five dose 0.01–100 μM",380 nM
same,Growth Percent,[31],−54.19%
same,Growth Percent,[32],0.95%
same,GI50,[32]; [41],310 nM
same,GI50,"[33]; Homo sapiens, NCI-H460, five dose 0.01–100 μM",830 nM
same,Growth Percent,[33],−78.43%
same,GI50,"[34]; Homo sapiens, SF-268, five dose 0.01–100 μM",1010 nM
same,Growth Percent,[34],−80.80%
same,GI50,"[35]; Homo sapiens, OVCAR-3, five dose 0.01–100 μM",270 nM
same,Growth Percent,[35],−93.24%
same,GI50,"[36]; Homo sapiens, SF-295, five dose 0.01–100 μM",440 nM
same,Growth Percent,[36],−98.52%
same,GI50,"[37]; Homo sapiens, OVCAR-4, five dose 0.01–100 μM",340 nM
same,Growth Percent,[37],−39.20%
same,Growth Percent,[38],−77.80%
same,GI50,[38]; [41],390 nM
same,GI50,"[39]; Homo sapiens, SK-MEL-2, five dose 0.01–100 μM",470 nM
same,Growth Percent,[39],-61.15%
same,Growth Percent,[40],−46.22%
same,GI50,"[40]; Homo sapiens, HCT-15, five dose 0.01–100 μM",240 nM
"COC(=O)[C@]12CC[C@@H](C(C)=O)[C@@H]1[C@H]1CC[C@@H]3[C@@]4(C)C/C(=C\c5cccnc5)C(=O)C(C)(C)[C@@H]4CC[C@@]3(C)[C@]1(C)CC2 [Compound 8, Methyl 3,20-dioxo-2-(3-pyridinylidene)-29-nor-lup-28-oate]",Growth Percent,[1],84.87%
same,Growth Percent,[2],5.47%
same,Growth Percent,[3],3.92%
same,Growth Percent,[4],60.52%
same,Growth Percent,[5],18.29%
same,Growth Percent,[6],32.49%
same,Growth Percent,[7],93.73%
same,Growth Percent,[8],52.54%
same,Growth Percent,[9],55.75%
same,Growth Percent,[10],76.56%
same,Growth Percent,[11],85.77%
same,Growth Percent,[12],56.64%
same,Growth Percent,[13],68.80%
same,Growth Percent,[14],75.76%
same,Growth Percent,[15],−2.67%
same,Growth Percent,[16],31.54%
same,Growth Percent,[17],38.71%
same,Growth Percent,[18],39.76%
same,Growth Percent,[19],93.90%
same,Growth Percent,[20],46.03%
same,Growth Percent,[21],72.63%
same,Growth Percent,[22],132.71%
same,Growth Percent,[23],56.69%
same,Growth Percent,[24],58.14%
same,Growth Percent,[25],30.89%
same,Growth Percent,[26],74.77%
same,Growth Percent,[27],114.28%
same,Growth Percent,[28],29.95%
same,Growth Percent,[29],66.73%
same,Growth Percent,[30],25.33%
same,Growth Percent,[31],19.18%
same,Growth Percent,[32],7.57%
same,Growth Percent,[33],70.90%
same,Growth Percent,[34],68.63%
same,Growth Percent,[35],49.04%
same,Growth Percent,[36],75.30%
same,Growth Percent,[37],26.68%
same,Growth Percent,[38],57.75%
same,Growth Percent,[39],68.06%
same,Growth Percent,[40],23.22%
